# In publication PMC7584622, “Sensing of autoinducer-2 by functionally distinct receptors in prokaryotes” (Nature Communications, 2020):
# Values joined by “and” are separate entries in the source; they are usually repeats but may differ in a detail not shown here. Equal values may be shown once.
# Assays:
# KinD-LBD = target: T1, KinD-LBD (Bacillus subtilis, UniProt O31671); assay: ITC binding to KinD-LBD; parameters: species or system B. subtilis; settings: 700 μM DPD/AI-2 into 70 μM KinD-LBD
# T1 construct: the LBD of HK KinD from B. subtilis; His6 (N, cleaved yes); made in house; host or cells: E. coli BL21(DE3) (pET-28a derivative)
# T1 sequence (O31671 37-250): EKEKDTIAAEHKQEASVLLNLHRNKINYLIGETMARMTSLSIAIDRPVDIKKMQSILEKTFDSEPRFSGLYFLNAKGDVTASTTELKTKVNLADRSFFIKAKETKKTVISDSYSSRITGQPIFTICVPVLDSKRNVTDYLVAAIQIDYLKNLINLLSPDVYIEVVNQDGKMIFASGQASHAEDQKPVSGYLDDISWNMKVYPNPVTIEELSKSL
# PctA-LBD W128A = target: T2, PctA-LBD W128A (Pseudomonas aeruginosa, UniProt G3XD24, W128A); assay: biochemical; format: binding; settings: PctA-LBD W128A 70 μM; DPD/AI-2 700 μM
# T2 construct: Amino acids 30-278 and 36-360 of PctA and TlpQ, respectively; His6 (N, cleaved yes); made in house; host or cells: E. coli BL21(DE3) (pET-28a derivative)
# T2 sequence (G3XD24 30-278 W128A): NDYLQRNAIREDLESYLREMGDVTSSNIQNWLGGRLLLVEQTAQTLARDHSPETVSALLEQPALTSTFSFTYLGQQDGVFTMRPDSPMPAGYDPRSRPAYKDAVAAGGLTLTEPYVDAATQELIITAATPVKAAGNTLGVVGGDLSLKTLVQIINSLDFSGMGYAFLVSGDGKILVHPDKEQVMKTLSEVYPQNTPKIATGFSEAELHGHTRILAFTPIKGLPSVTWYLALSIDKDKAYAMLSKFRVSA
# PctA-LBD Y101A = target: T3, PctA-LBD Y101A (Pseudomonas aeruginosa, UniProt G3XD24, Y101A); assay: biochemical; format: binding; settings: PctA-LBD Y101A 70 μM; DPD/AI-2 700 μM
# T3 construct: Amino acids 30-278 and 36-360 of PctA and TlpQ, respectively; His6 (N, cleaved yes); made in house; host or cells: E. coli BL21(DE3) (pET-28a derivative)
# T3 sequence (G3XD24 30-278 Y101A): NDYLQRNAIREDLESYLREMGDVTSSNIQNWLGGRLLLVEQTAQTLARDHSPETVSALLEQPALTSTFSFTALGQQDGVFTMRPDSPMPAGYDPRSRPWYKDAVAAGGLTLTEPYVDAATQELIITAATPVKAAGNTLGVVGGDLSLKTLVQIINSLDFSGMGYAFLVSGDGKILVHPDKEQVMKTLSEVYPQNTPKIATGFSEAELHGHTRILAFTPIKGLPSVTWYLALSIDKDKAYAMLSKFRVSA
# PctB-LBDE146D = target: T4, PctB-LBDE146D (Pseudomonas aeruginosa, UniProt Q9HW91, E146D); assay: biochemical; format: binding; settings: 700 μM DPD/AI-2 into 70 μM PctB-LBD E146D
# T4 construct: the dCACHE-type LBDs of PctB and PctC; His6 (N, cleaved yes); made in house; host or cells: E. coli BL21(DE3) (pET-28a derivative)
# T4 sequence (Q9HW91 32-276 E146D): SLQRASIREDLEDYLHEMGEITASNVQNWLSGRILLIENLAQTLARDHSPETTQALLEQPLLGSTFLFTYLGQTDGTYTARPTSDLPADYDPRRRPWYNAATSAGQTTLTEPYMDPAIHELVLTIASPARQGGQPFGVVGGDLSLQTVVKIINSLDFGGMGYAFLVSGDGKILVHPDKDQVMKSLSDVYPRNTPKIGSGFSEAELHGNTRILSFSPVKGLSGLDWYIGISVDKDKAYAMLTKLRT
# KinD = target: T5, KinD (Bacillus subtilis, UniProt O31671); assay: in vitro kinase assay, KinD autophosphorylation (LC-MS/MS); format: biochemical, B. subtilis; settings: 100 μM ATP, 30 min, 30 °C
# T5 construct: The genes encoding full-length KinD and rpHK1S-Z16 were cloned with a C-terminal His6 tag into pHSe5; made in house; host or cells: E. coli BL21(DE3) ΔluxS (pHSe5), membrane fractions
# T5 sequence (O31671 whole entry): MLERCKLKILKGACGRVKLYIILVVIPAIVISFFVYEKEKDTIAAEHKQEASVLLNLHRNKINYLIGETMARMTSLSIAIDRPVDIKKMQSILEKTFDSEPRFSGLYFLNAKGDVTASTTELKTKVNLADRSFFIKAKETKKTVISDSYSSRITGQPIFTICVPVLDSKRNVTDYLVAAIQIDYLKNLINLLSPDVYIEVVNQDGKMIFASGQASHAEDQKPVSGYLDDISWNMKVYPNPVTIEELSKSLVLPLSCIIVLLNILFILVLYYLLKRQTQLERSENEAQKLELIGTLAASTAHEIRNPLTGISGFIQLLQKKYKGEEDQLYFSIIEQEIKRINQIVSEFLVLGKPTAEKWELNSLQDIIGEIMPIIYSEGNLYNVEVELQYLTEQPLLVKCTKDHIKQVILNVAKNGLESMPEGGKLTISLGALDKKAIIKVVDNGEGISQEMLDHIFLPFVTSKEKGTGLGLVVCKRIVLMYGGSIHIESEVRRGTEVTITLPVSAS
# Description: Twenty micrograms of membrane fractions containing KinD was preincubated in a 50-μl reaction system containing 50 mM Tris-HCl (pH 7.8), 2 mM DTT, 25 mM NaCl, 25 mM KCl, 5 mM MgCl2 for 10 min at 30 °C. […] A control experiment was performed without ATP to check the initial phosphorylation state of KinD. After 30 min incubation at 30 °C, products were resolved by SDS-PAGE, and the gel bands corresponding to KinD were excised and used for detection and quantification of phosphorylation by nano-LC-MS/MS.
# Gel slices excised from SDS-PAGE gels were destained with three washes in 100 μl of 100 mM ammonium bicarbonate in 50% acetonitrile at 37 °C for 15 min. Destained gel pieces were dried in a SpeedVac (Thermo Fisher Scientific) for 15 min. 10 mM DTT in 25 mM ammonium bicarbonate was added to cover the gel pieces and incubated at 56 °C for 1 h. […] The dried peptide samples were resolubilized in 0.1% formic acid and analyzed in C18 reversed-phase column connected to an EASY-nLC 1000 interfaced via a Nanospray Flex ion source to an Orbitrap Fusion Tribrid mass spectrometer (Thermo Fisher Scientific). […] Protein identification and quantification were performed using Mascot Daemon version 2.5.1 (Matrix Science, Boston, USA) considering the specific modifications.
# PctA-LBD D173A = target: T6, PctA-LBD D173A (Pseudomonas aeruginosa, UniProt G3XD24, D173A); assay: biochemical; format: binding; settings: PctA-LBD D173A 70 μM; DPD/AI-2 700 μM
# T6 construct: Amino acids 30-278 and 36-360 of PctA and TlpQ, respectively; His6 (N, cleaved yes); made in house; host or cells: E. coli BL21(DE3) (pET-28a derivative)
# T6 sequence (G3XD24 30-278 D173A): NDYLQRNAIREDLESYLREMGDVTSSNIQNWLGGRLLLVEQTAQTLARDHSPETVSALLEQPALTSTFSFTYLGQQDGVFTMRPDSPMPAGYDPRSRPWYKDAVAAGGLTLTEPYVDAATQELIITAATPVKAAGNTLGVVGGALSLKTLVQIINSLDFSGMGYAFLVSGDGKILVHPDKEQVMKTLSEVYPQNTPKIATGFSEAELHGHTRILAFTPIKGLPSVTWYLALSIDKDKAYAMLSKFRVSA
# PctA-LBD R126A = target: T7, PctA-LBD R126A (Pseudomonas aeruginosa, UniProt G3XD24, R126A); assay: biochemical; format: binding; settings: PctA-LBD R126A 70 μM; DPD/AI-2 700 μM
# T7 construct: Amino acids 30-278 and 36-360 of PctA and TlpQ, respectively; His6 (N, cleaved yes); made in house; host or cells: E. coli BL21(DE3) (pET-28a derivative)
# T7 sequence (G3XD24 30-278 R126A): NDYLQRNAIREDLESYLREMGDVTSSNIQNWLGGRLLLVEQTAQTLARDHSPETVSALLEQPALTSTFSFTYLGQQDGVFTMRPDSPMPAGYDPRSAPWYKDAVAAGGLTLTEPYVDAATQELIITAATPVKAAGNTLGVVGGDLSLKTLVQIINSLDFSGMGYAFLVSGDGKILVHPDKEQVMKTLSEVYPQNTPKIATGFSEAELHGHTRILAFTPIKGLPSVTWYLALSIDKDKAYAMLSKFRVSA
# PctB-LBD = PctB-LBD (Pseudomonas aeruginosa, UniProt Q9HW91); assay: ITC binding to PctB-LBD; settings: 700 μM DPD/AI-2 into 70 μM PctB-LBD, minor heats, not certain whether they reflect binding
# Sequence of PctB-LBD (Q9HW91 32-276): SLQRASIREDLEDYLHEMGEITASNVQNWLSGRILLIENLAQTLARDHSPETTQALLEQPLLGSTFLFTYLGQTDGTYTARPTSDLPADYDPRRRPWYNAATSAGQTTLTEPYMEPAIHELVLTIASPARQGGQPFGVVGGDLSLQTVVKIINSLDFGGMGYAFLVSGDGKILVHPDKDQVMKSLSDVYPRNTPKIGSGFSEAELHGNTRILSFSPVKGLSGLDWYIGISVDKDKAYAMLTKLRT
# Description: ITC experiments were performed at 20 °C using a Nano ITC Standard Volume isothermal calorimeter (TA Instruments, New Castle, DE). […] The stirring speed was 200 r.p.m. and 25 injections were used each experiment. Three independent experiments were performed for each sample. […] ITC data were analyzed and fit with a one-site independent binding model using the NanoAnalyze software version 3.4 provided by the manufacturer, with the heat of dilution subtracted from the experimental titrations before data analysis.
# PctA-LBD Y144A = target: T8, PctA-LBD Y144A (Pseudomonas aeruginosa, UniProt G3XD24, Y144A); assay: biochemical; format: binding; settings: PctA-LBD Y144A 70 μM; DPD/AI-2 700 μM
# T8 construct: Amino acids 30-278 and 36-360 of PctA and TlpQ, respectively; His6 (N, cleaved yes); made in house; host or cells: E. coli BL21(DE3) (pET-28a derivative)
# T8 sequence (G3XD24 30-278 Y144A): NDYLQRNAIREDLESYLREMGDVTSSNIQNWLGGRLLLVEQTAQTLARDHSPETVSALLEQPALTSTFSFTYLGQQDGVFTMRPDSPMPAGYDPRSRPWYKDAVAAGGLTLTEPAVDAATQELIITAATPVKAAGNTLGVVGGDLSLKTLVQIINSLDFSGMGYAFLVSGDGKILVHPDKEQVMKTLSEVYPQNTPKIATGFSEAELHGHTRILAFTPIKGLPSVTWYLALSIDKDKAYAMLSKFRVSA
# P. aeruginosa PAO1 = assay: confocal laser-scanning microscopy of static biofilms (biovolume, COMSTAT); settings: 100 nM DPD/AI-2
# Description: Biofilms were stained with crystal violet and quantified using optical density measurement after incubation at 37 °C for 48 h. […] Images were reconstructed using the Imaris 9.0 software package (Bitplane, AG) (Supplementary Fig. 6) and biofilm biovolumes were quantified using COMSTAT (www.comstat.dk). Biovolumes were calculated from three biological replicates and each biological replicate was derived from an average of five confocal images.
# For confocal laser-scanning microscopy and image analysis of static biofilms, overnight cultures of P. aeruginosa strains carrying pME6032-mCherry were diluted with TSB medium to an OD600 of 0.01 (~2 × 10^7 CFU ml^−1). […] The cultures were incubated at 37 °C under static conditions and biofilms were visualized using a Revolution XD laser-scanning confocal microscope (Andor, Belfast, Northern Ireland) after 1, 10, and 19 h. The excitation/emission wavelength for mCherry was 568/590 nm. Images were reconstructed using the Imaris 9.0 software package (Bitplane, AG) and the biovolumes were calculated using COMSTAT 2.1[46] plugin in ImageJ software (version 1.48). Biovolumes were measured and calculated from three biological replicates and each biological replicate was derived from an average of five confocal images.
compound,measurement,setting,value
"CC(=O)C(=O)C(O)CO (stereo not shown) [DPD/AI-2, 4,5-dihydroxy-2,3-pentanedione]",Kd,KinD-LBD,0.12 µM and 0.16 µM and 0.15 µM
same,Kd,PctA-LBD W128A,25 µM and 24 µM and 18 µM
same,Kd,PctA-LBD Y101A,33 µM and 42 µM and 34 µM
same,Kd,PctB-LBDE146D,0.22 µM and 0.27 µM and 0.23 µM
same,Phosphorylation level (%) of KinD,KinD; 10 μM DPD/AI-2,27.45% and 24.59% and 21.92% and 23.68%
same,Phosphorylation level (%) of KinD,KinD; 50 μM DPD/AI-2,49.23% and 54.72% and 52.70% and 57.14%
same,Kd,PctA-LBD D173A,12 µM and 14 µM and 13 µM and 10 µM
same,Kd,PctA-LBD R126A,49 µM and 33 µM and 41 µM
same,Kd,PctB-LBD,205 µM and 176 µM and 163 µM
same,Kd,PctA-LBD Y144A,16 µM and 14 µM and 12 µM
same,Biovolume of P. aeruginosa,"P. aeruginosa PAO1; WT, 1 h",28364 μm3 mm-2 and 23058 μm3 mm-2 and 27608 μm3 mm-2
same,Biovolume of P. aeruginosa,"P. aeruginosa PAO1; WT, 10 h",1281908 μm3 mm-2 and 1109100 μm3 mm-2 and 1052160 μm3 mm-2
same,Biovolume of P. aeruginosa,"P. aeruginosa PAO1; WT, 19 h",3128446 μm3 mm-2 and 3141281 μm3 mm-2 and 3321156 μm3 mm-2
same,Biovolume of P. aeruginosa,"P. aeruginosa PAO1; ΔpctA, 1 h",25418 μm3 mm-2 and 25743 μm3 mm-2 and 24604 μm3 mm-2
same,Biovolume of P. aeruginosa,"P. aeruginosa PAO1; ΔpctA, 10 h",609991 μm3 mm-2 and 657748 μm3 mm-2 and 721040 μm3 mm-2
same,Biovolume of P. aeruginosa,"P. aeruginosa PAO1; ΔpctA, 19 h",1305959 μm3 mm-2 and 1192157 μm3 mm-2 and 1109432 μm3 mm-2
same,Biovolume of P. aeruginosa,"P. aeruginosa PAO1; ΔpctAΔtlpQ, 1 h",24520 μm3 mm-2 and 23099 μm3 mm-2 and 23881 μm3 mm-2
same,Biovolume of P. aeruginosa,"P. aeruginosa PAO1; ΔpctAΔtlpQ, 10 h",372013 μm3 mm-2 and 288390 μm3 mm-2 and 355734 μm3 mm-2
same,Biovolume of P. aeruginosa,"P. aeruginosa PAO1; ΔpctAΔtlpQ, 19 h",111554 μm3 mm-2 and 108961 μm3 mm-2 and 114758 μm3 mm-2
same,Biovolume of P. aeruginosa,"P. aeruginosa PAO1; ΔtlpQ, 1 h",22029 μm3 mm-2 and 31306 μm3 mm-2 and 26285 μm3 mm-2
same,Biovolume of P. aeruginosa,"P. aeruginosa PAO1; ΔtlpQ, 10 h",645081 μm3 mm-2 and 690688 μm3 mm-2 and 715157 μm3 mm-2
same,Biovolume of P. aeruginosa,"P. aeruginosa PAO1; ΔtlpQ, 19 h",1292148 μm3 mm-2 and 1288991 μm3 mm-2 and 1359959 μm3 mm-2
